Read-outs that look alike come from different tables or passages of the source. A value given as a limit tells only on which side of the number the result lay.

The record followed here is US12594276B2, “Inhibitors of human immunodeficiency virus replication” (ViiV Healthcare UK (No.5) Limited, priority 2024, dated 2026).

Data set [1] deals with recombinant NL4-3 virus (nef section replaced with Renilla luciferase gene) in MT-2 cells. The experiment in a line: HIV cell culture assay (antiviral activity, luciferase readout). To be noted: Renilla, NL43, MT-2 cells infected for 4-5 days with recombinant NL4-3 Renilla luciferase virus. Format: cell-based. Here is the method:
HIV cell culture assay—MT-2 cells, 293T cells and the proviral DNA clone of NL4-3 virus were obtained from the NIH AIDS Research and Reference Reagent Program. MT-2 cells were propagated in RPMI 1640 media supplemented with 10% heat inactivated fetal bovine serum (FBS), […]. The 293T cells were propagated in DMEM media supplemented with 10% heat inactivated FBS, […]. A recombinant NL4-3 proviral clone, in which a section of the nef gene was replaced with the Renilla luciferase gene, was used to make the reference virus used in these studies. The recombinant virus was prepared through transfection of the recombinant NL4-3 proviral clone into 293T cells using Transit-293 Transfection Reagent from Mirus Bio LLC (Madison, WI). Supernatant was harvested after 2-3 days and the amount of virus present was titered in MT-2 cells using luciferase enzyme activity as a marker by measuring luciferase enzyme activity. Luciferase was quantitated using the EnduRen Live Cell Substrate from Promega (Madison, WI). Antiviral activities of compounds toward the recombinant virus were quantified by measuring luciferase activity in MT-2 cells infected for 4-5 days with the recombinant virus in the presence of serial dilutions of the compound.
The 50% effective concentration (EC50) was calculated by using the exponential form of the median effect equation where (Fa)=1/[1+(ED50/drug conc.)m](Johnson V A, Byington R T. Infectivity Assay. In Techniques in HIV Research. ed. Aldovini A, Walker B D. 71-76. New York: Stockton Press. 1990). Curve fitting and analysis were performed with ActivityBase XE Runner software version 9.1.0.4 using model 203 (ID Business Solutions, LTD, Guildford, UK).

Data set [2] can be described thus: Compound cytotoxicity, XTT-based colorimetric assay. Format: cell-based. To be noted: human. How it is done: Compound cytotoxicity and the corresponding CC50 values were determined using the same protocol as described in the antiviral assay except that uninfected cells were used. Cytotoxicity was assessed on day 4 in uninfected MT2 cells by using an XTT (2,3-bis[2-Methoxy-4-nitro-5-sulfophenyl]-2H-tetrazolium-5-carboxyanilide inner salt)-based colorimetric assay (Sigma-Aldrich, St Louis, Mo).
(Tetrazolium assays rely on reduction of a dye to a coloured formazan, in cell work by metabolically active cells.)

Setting [3] is: uninfected MT2 cells, day 4, XTT, read-out: CC50.

On to `Cc1cc(C2CCC(F)(F)CC2)nc2nc([C@H](Cc3cc(F)cc(F)c3)NC(=O)Cn3nc(C4CC4)c4c3C[C@@H]3C[C@H]43)n(-c3ccc(Cl)c4c(NS(C)(=O)=O)nn(CCN5[C@@H]6CC[C@H]5COC6)c34)c(=O)c12` (atropisomer, axis not shown; (P)) [Example 6, N-[(1S)-1-[(3P)-3-(4-chloro-3-methanesulfonamido-1-{2-[(1R,5S)-3-oxa-8-azabicyclo[3.2.1]octan-8-yl]ethyl}-1H-indazol-7-yl)-7-(4,4-difluorocyclohexyl)-5-methyl-4-oxo-3H,4H-pyrido[2,3-d]pyrimidin-2-yl]-2-(3,5-difluorophenyl)ethyl]-2-[(2S,4S)-9-cyclopropyl-7,8-diazatricyclo[4.3.0.0^2,^4]nona-1(6),8-dien-7-yl]acetamide], for which the 50% effective concentration (EC50) (in general, the concentration giving half of the maximal effect) in data set [1] was determined as 0.006 nM. The CC50 (as a rule, the concentration giving 50% cytotoxicity) at 4 days in data set [2] is above 50 nM.
Regarding `Cc1cc(C2CCC(F)(F)CC2)nc2nc([C@H](Cc3cc(F)cc(F)c3)NC(=O)Cn3nc(C4CC4)c4c3C[C@@H]3C[C@H]43)n(-c3ccc(Cl)c4c(NS(C)(=O)=O)nn(CCN5C[C@H]6C[C@@H](C5)O6)c34)c(=O)c12` (atropisomer, axis not shown; (P)) [Example 7, N-[(1S)-1-[(3P)-3-(4-chloro-3-methanesulfonamido-1-{2-[(1R,5S)-6-oxa-3-azabicyclo[3.1.1]heptan-3-yl]ethyl}-1H-indazol-7-yl)-7-(4,4-difluorocyclohexyl)-5-methyl-4-oxo-3H,4H-pyrido[2,3-d]pyrimidin-2-yl]-2-(3,5-difluorophenyl)ethyl]-2-[(2S,4S)-9-cyclopropyl-7,8-diazatricyclo[4.3.0.0^2,^4]nona-1(6),8-dien-7-yl]acetamide], in data set [1], the EC50 was determined as 0.009 nM. The compound also displayed a 50% cytotoxic concentration (CC50) at 4 days in data set [2] above 50 nM.
With `Cc1cc(C2CCC(F)(F)CC2)nc2nc([C@H](Cc3cc(F)cc(F)c3)NC(=O)Cn3nc(C4CC4)c4c3C[C@@H]3C[C@H]43)n(-c3ccc(Cl)c4c(NS(C)(=O)=O)nn(CCN5C[C@H]6C[C@@H]5CO6)c34)c(=O)c12` (atropisomer, axis not shown; (P)) [Example 9, N-[(1S)-1-[(3P)-3-(4-chloro-3-methanesulfonamido-1-{2-[(1R,4R)-2-oxa-5-azabicyclo[2.2.1]heptan-5-yl]ethyl}-1H-indazol-7-yl)-7-(4,4-difluorocyclohexyl)-5-methyl-4-oxo-3H,4H-pyrido[2,3-d]pyrimidin-2-yl]-2-(3,5-difluorophenyl)ethyl]-2-[(2S,4S)-9-cyclopropyl-7,8-diazatricyclo[4.3.0.0^2,^4]nona-1(6),8-dien-7-yl]acetamide], in data set [1], the EC50 was 0.009 nM. The CC50 at 4 days in data set [2] (setting [3]) was above 50 nM.
With `COCCNCCn1nc(NS(C)(=O)=O)c2c(Cl)ccc(-n3c([C@H](Cc4cc(F)cc(F)c4)NC(=O)Cn4nc(C5CC5)c5c4C[C@@H]4C[C@H]54)nc4nc(C5CCC(F)(F)CC5)cc(C)c4c3=O)c21` (atropisomer, axis not shown; (P)) [Example 10, N-[(1S)-1-[(3P)-3-(4-chloro-3-methanesulfonamido-1-{2-[(2-methoxyethyl)amino]ethyl}-1H-indazol-7-yl)-7-(4,4-difluorocyclohexyl)-5-methyl-4-oxo-3H,4H-pyrido[2,3-d]pyrimidin-2-yl]-2-(3,5-difluorophenyl)ethyl]-2-[(2S,4S)-9-cyclopropyl-7,8-diazatricyclo[4.3.0.0^2,^4]nona-1(6),8-dien-7-yl]acetamide], the EC50 in data set [1] came to 0.06 nM. In addition, the 50% cytotoxic concentration (CC50) at 4 days in data set [2] (setting [3]) was above 50 nM.
Turning to `Cc1cc(C2(F)CCC(F)(F)CC2)nc2nc([C@H](Cc3cc(F)cc(F)c3)NC(=O)Cn3nc(C(F)F)c4c3C(F)(F)[C@@H]3C[C@H]43)n(-c3ccc(Cl)c4c(NS(C)(=O)=O)nn(CCN5C[C@H](F)C[C@H](F)C5)c34)c(=O)c12` (atropisomer, axis not shown; (P)) [Example 11, N-[(1S)-1-[(3P)-3-(4-chloro-1-{2-[(3R,5S)-3,5-difluoropiperidin-1-yl]ethyl}-3-methanesulfonamido-1H-indazol-7-yl)-5-methyl-4-oxo-7-(1,4,4-trifluorocyclohexyl)-3H,4H-pyrido[2,3-d]pyrimidin-2-yl]-2-(3,5-difluorophenyl)ethyl]-2-[(2S,4R)-9-(difluoromethyl)-5,5-difluoro-7,8-diazatricyclo[4.3.0.0^2,4]nona-1(6),8-dien-7-yl]acetamide], the EC50 in data set [1] came out at 0.009 nM. In data set [2] (setting [3]), the CC50 at 4 days was above 20000 nM.
Turning to `Cc1cc(C2(F)CCC(F)(F)CC2)nc2nc([C@H](Cc3cc(F)cc(F)c3)NC(=O)Cn3nc(C4CC4)c4c3C[C@@H]3C[C@H]43)n(-c3ccc(Cl)c4c(NS(C)(=O)=O)nn(CCN5C[C@H](F)C[C@H](F)C5)c34)c(=O)c12` (atropisomer, axis not shown; (P)) [Example 12, N-[(1S)-1-[(3P)-3-(4-chloro-1-{2-[(3R,5S)-3,5-difluoropiperidin-1-yl]ethyl}-3-methanesulfonamido-1H-indazol-7-yl)-5-methyl-4-oxo-7-(1,4,4-trifluorocyclohexyl)-3H,4H-pyrido[2,3-d]pyrimidin-2-yl]-2-(3,5-difluorophenyl)ethyl]-2-[(2S,4S)-9-cyclopropyl-7,8-diazatricyclo[4.3.0.0^2,4]nona-1(6),8-dien-7-yl]acetamide], the concentration giving a half-maximal response (EC50) in data set [1] was 0.012 nM. Besides, in data set [2] (setting [3]), the CC50 at 4 days was above 20000 nM.
For the compound `Cc1cc(C2CCC(F)(F)CC2)nc2nc([C@H](Cc3cc(F)cc(F)c3)NC(=O)Cn3nc(C4CC4)c4c3C[C@@H]3C[C@H]43)n(-c3ccc(Cl)c4c(NS(C)(=O)=O)nn(CCN5CC(C)(C)OC(C)(C)C5)c34)c(=O)c12` (atropisomer, axis not shown; (P)) [Example 13, N-[(1S)-1-[(3P)-3-{4-chloro-3-methanesulfonamido-1-[2-(2,2,6,6-tetramethylmorpholin-4-yl)ethyl]-1H-indazol-7-yl}-7-(4,4-difluorocyclohexyl)-5-methyl-4-oxo-3H,4H-pyrido[2,3-d]pyrimidin-2-yl]-2-(3,5-difluorophenyl)ethyl]-2-[(2S,4S)-9-cyclopropyl-7,8-diazatricyclo[4.3.0.0^2,4]nona-1(6),8-dien-7-yl]acetamide], the EC50 in data set [1] was found to be 0.011 nM. The CC50 at 4 days in data set [2] (setting [3]) is above 20000 nM.
Turning to `Cc1cc(C2CCC(F)(F)CC2)nc2nc([C@H](Cc3cc(F)cc(F)c3)NC(=O)Cn3nc(C(F)F)c4c3C(F)(F)[C@@H]3C[C@H]43)n(-c3ccc(Cl)c4c(NS(C)(=O)=O)nn(CCN5CCCC(F)(F)C5)c34)c(=O)c12` (atropisomer, axis not shown; (P)) [Example 14, N-[(1S)-1-[(3P)-3-{4-chloro-1-[2-(3,3-difluoropiperidin-1-yl)ethyl]-3-methanesulfonamido-1H-indazol-7-yl}-7-(4,4-difluorocyclohexyl)-5-methyl-4-oxo-3H,4H-pyrido[2,3-d]pyrimidin-2-yl]-2-(3,5-difluorophenyl)ethyl]-2-[(2S,4R)-9-(difluoromethyl)-5,5-difluoro-7,8-diazatricyclo[4.3.0.0^2,^4]nona-1(6),8-dien-7-yl]acetamide], in data set [1], the EC50 is 0.009 nM. Further, in data set [2] (setting [3]), the CC50 at 4 days was above 50 nM.
With `Cc1cc(C2CCC(F)(F)CC2)nc2nc([C@H](Cc3cc(F)cc(F)c3)NC(=O)Cn3nc(C(F)F)c4c3C(F)(F)[C@@H]3C[C@H]43)n(-c3ccc(Cl)c4c(NS(C)(=O)=O)nn(CCN5CCCC(F)(F)CC5)c34)c(=O)c12` (atropisomer, axis not shown; (P)) [Example 15, N-[(1S)-1-[(3P)-3-{4-chloro-1-[2-(4,4-difluoroazepan-1-yl)ethyl]-3-methanesulfonamido-1H-indazol-7-yl}-7-(4,4-difluorocyclohexyl)-5-methyl-4-oxo-3H,4H-pyrido[2,3-d]pyrimidin-2-yl]-2-(3,5-difluorophenyl)ethyl]-2-[(2S,4R)-9-(difluoromethyl)-5,5-difluoro-7,8-diazatricyclo[4.3.0.0^2,^4]nona-1(6),8-dien-7-yl]acetamide], in data set [1], the EC50 was 0.01 nM. For the same compound, in data set [2] (setting [3]), the CC50 at 4 days was above 50 nM.
For `Cc1cc(C2CCC(F)(F)CC2)nc2nc([C@H](Cc3cc(F)cc(F)c3)NC(=O)Cn3nc(C(F)F)c4c3C(F)(F)[C@@H]3C[C@H]43)n(-c3ccc(Cl)c4c(NS(C)(=O)=O)nn(CCN5CC(C)(C)OC(C)(C)C5)c34)c(=O)c12` (atropisomer, axis not shown; (P)) [Example 17, N-[(1S)-1-[(3P)-3-{4-chloro-3-methanesulfonamido-1-[2-(2,2,6,6-tetramethylmorpholin-4-yl)ethyl]-1H-indazol-7-yl}-7-(4,4-difluorocyclohexyl)-5-methyl-4-oxo-3H,4H-pyrido[2,3-d]pyrimidin-2-yl]-2-(3,5-difluorophenyl)ethyl]-2-[(2S,4R)-9-(difluoromethyl)-5,5-difluoro-7,8-diazatricyclo[4.3.0.0^2,^4]nona-1(6),8-dien-7-yl]acetamide], the half-maximal effective concentration (EC50) in data set [1] worked out at 0.012 nM. Moreover, the CC50 at 4 days in data set [2] (setting [3]) was above 50 nM.
